Source: patent publication US10513494B2, “Methods, compounds, and compositions for anesthesia” (THE BOARD OF TRUSTEES OF THE LELAND STANFORD JUNIOR …, priority 2014, dated 2019)
pEC50: −log10 of the molar value. Like-named read-outs stand apart in the source and are kept apart here.

How the values were obtained:
[1] = test system: American bullfrog Rana catesbeiana tadpoles; experiment: Loss of righting reflex (LORR) in tadpoles; format: in vivo; details: Aquarana catesbeiana, water bath exposure
Procedure: Anesthesia is defined as the combination of a lack of movement to a given stimulus, lack of awareness, amnesia and analgesia. The surrogate of such is manifest in the tadpole as the loss of righting reflex (LORR). Early prelimb-bud stage American bullfrog Rana catesbeiana tadpoles (5 per 50 ml beaker) were placed in room temperature oxygenated water buffered with 2.5 mM Tris HCl buffer (pH=7.4) and containing a concentration of test compound ranging from 0.11 uM-1 mM. Tadpoles were manually tipped every 5 min with a glass rod or stream of water until their righting reflex response stabilized or 120 minutes elapses. […] At the end of each study, tadpoles were transferred to fresh water to assess whether the anesthetic action was reversible.

[2] = test system: GABAaR; details: known literature value; read-out: EC50 for GABAaR potentiation; cited from earlier work
[3] = test system: American bullfrog Rana catesbeiana tadpoles; experiment: Loss of righting reflex (LORR) in tadpoles; format: in vivo; details: Aquarana catesbeiana; text refers to Table 2; read-out: EC50 for GABAaR potentiation in tadpoles
[4] = test system: native GABA-A receptors; experiment: Electrophysiology in hippocampal brain slices (paired pulse inhibition, CA1); format: cell-based; details: rat hippocampal slice
Procedure: Brain slices were prepared from male Sprague-Dawley rats that had been deeply anesthetized with isoflurane. The brain was quickly removed and placed in ice-cold artificial cerebrospinal fluid (ACSF) that was saturated with 95% O2 and 5% CO2 (carbogen) to achieve a pH of 7.4. The ACSF was composed of the following ions dissolved in spectrophotometry grade water (EMD Chemicals Inc., Billerica, Mass.) and stated in millimolar concentrations: Na 151.25, Cl 131.5, HCO3 26, K 2.5, Ca 2, Mg 2, SO4 2, H2PO4 1.25, and glucose 10. Coronal brain slices were prepared using a vibratome (Model 1500, Technical Products International Inc., St. Louis, Mo.) and 400-μm-thick slices were hemisected and placed on cellulose filter papers. They were stored at a gas (carbogen)-liquid (ACSF) interface in a holding chamber for at least 1 hour before use. […]
Evoked field potentials were measured using thin-walled glass pipettes (1.0 ID, 1.5 OD; Garner Glass Co., Claremont, Calif.) filled with ACSF. […]
Recorded signals were conditioned using an Axoclamp 2B preamplifier (Axon Instruments, Sunnyvale, Calif.) with a bandpass from DC to 30 kHz and gain of ×10. […] Responses were measured and plotted in real time to ensure that stable baselines (<±2.0% variation) were recorded for at least 20 minutes before the experiments began. […]

SMILES	EC50 [1]	other results
Cc1cc(C(=O)OCc2c(Cl)cccc2Cl)c(C)n1-c1ccccc1 [C]	~5 µM	
CCOC(=O)c1cn(-c2ccc(Cl)cc2Cl)c(-c2ccc(Br)cc2)n1 [Compound 1n]		pEC50 [2]: 6.72
CCOC(=O)c1cc(-c2ccc(OC)cc2)n(-c2ccc(Cl)cc2)c1C [Compound A]	1.5 µM	pEC50 [3]: ~5.82
CCOC(=O)c1cc(-c2ccc(Cl)cc2)n(-c2ccccc2)c1C [Compound B]	0.53 µM	concentration at which paired pulse inhibition was noted [4]: 100 µM
Cc1cc(C(=O)OCc2ccc(Cl)cc2Cl)c(C)n1-c1ccccc1 [D]	~20 µM	
Cc1cc(C(=O)OCc2ccc(Cl)cc2)c(C)n1-c1ccc(F)cc1 [E]	~40 µM	
COC(=O)c1cc(-c2ccc(C)c(C)c2)n(-c2ccc(Br)cc2)c1C [F]	~20 µM	
COC(=O)c1cc(-c2ccc(C)c(C)c2)n(-c2ccc(F)cc2Br)c1C [G]	~3 µM	
COC(=O)c1cc(-c2ccc(C)c(C)c2)n(-c2ccc(Cl)c(Cl)c2)c1C [H]	> 40 µM	
COC(=O)c1cc(-c2ccc(Br)cc2)n(-c2cccc(Cl)c2C)c1C [J]	> 40 µM	
COC(=O)c1cc(-c2ccc(Br)cc2)n(-c2ccc(Br)cc2)c1C [K]	~40 µM	
CCOC(=O)c1cc(C)n(-c2cccc(Cl)c2Cl)c1-c1ccccc1 [M]	~20 µM	
Oc1ccccc1 [phenol]		pEC50 [2]: 3.04
